Source: US20100285959A1, “HERBICIDAL MIXTURES” (priority 2006, published 2010)

Experiments:
redroot pigweed (AMARE) [1] = test: Test 21 growth chamber, postemergence; type: in vivo, Amaranthus retroflexus; settings: 19 DAA
Experimental: (§1) A test was conducted to evaluate the effects on winter barley (HORVW, Hordeum vulgare L.), winter wheat (TRZAW, Triticum aestivum L.), and several weed species, of mixtures of Compound 2 with the commercial herbicide (2,4-dichlorophenoxy)acetic acid (2,4-D), an auxin mimic. […] Plants were treated postemergence at the 2-4 leaf growth stage, and each treatment was replicated one time. […] Plants were watered as needed. […] Results are from single replicates.

redroot pigweed (AMARE) [2] = test: Test 22 growth chamber, postemergence; type: in vivo, Amaranthus retroflexus; settings: 25 DAA; 2,4-D or MCPA alone 250 g a.i./ha
Experimental: as §1, with “species” for “species,”, “herbicides” for “herbicide”, “(2,4-D) and (4-chloro-2-methylphenoxy)acetic acid (MCPA),” for “(2,4-D), an”, “mimics.” for “mimic.”, “stage, except KCHSC, SASKR” for “stage,”, “STEME which were in the 4-8 leaf growth stage. Each” for “each”

wild buckwheat (POLCO) = test: Test 22 growth chamber, postemergence; type: in vivo, Polygonum convolvulus; settings: 25 DAA; 2,4-D or MCPA alone 250 g a.i./ha
Experimental: as §1, with “species” for “species,”, “herbicides” for “herbicide”, “(2,4-D) and (4-chloro-2-methylphenoxy)acetic acid (MCPA),” for “(2,4-D), an”, “mimics.” for “mimic.”, “stage, except KCHSC, SASKR” for “stage,”, “STEME which were in the 4-8 leaf growth stage. Each” for “each”

Russian thistle (SASKR) [3] = test: Test 22 growth chamber, postemergence; type: in vivo, Salsola kali; settings: 25 DAA; 2,4-D or MCPA alone 250 g a.i./ha
Experimental: as §1, with “species” for “species,”, “herbicides” for “herbicide”, “(2,4-D) and (4-chloro-2-methylphenoxy)acetic acid (MCPA),” for “(2,4-D), an”, “mimics.” for “mimic.”, “stage, except KCHSC, SASKR” for “stage,”, “STEME which were in the 4-8 leaf growth stage. Each” for “each”

common chickweed (STEME) = test: Test 22 growth chamber, postemergence; type: in vivo, Stellaria media; settings: 25 DAA; 2,4-D or MCPA alone 250 g a.i./ha
Experimental: as §1, with “species” for “species,”, “herbicides” for “herbicide”, “(2,4-D) and (4-chloro-2-methylphenoxy)acetic acid (MCPA),” for “(2,4-D), an”, “mimics.” for “mimic.”, “stage, except KCHSC, SASKR” for “stage,”, “STEME which were in the 4-8 leaf growth stage. Each” for “each”

winter wheat (TRZAW) = test: Test 23 growth chamber, postemergence; type: in vivo, Triticum aestivum; settings: 21 DAA; 2,4-D or MCPA alone 250 g a.i./ha
Experimental: as §1, with “species” for “species,”, “herbicides” for “herbicide”, “(2,4-D) and (4-chloro-2-methylphenoxy)acetic acid (MCPA),” for “(2,4-D), an”, “mimics.” for “mimic.”, “three times.” for “one time.”, “means of the three” for “from single”

redroot pigweed (AMARE) [4] = test: Test 23 growth chamber, postemergence; type: in vivo, Amaranthus retroflexus; settings: 21 DAA; 2,4-D or MCPA alone 250 g a.i./ha
Experimental: as §1, with “species” for “species,”, “herbicides” for “herbicide”, “(2,4-D) and (4-chloro-2-methylphenoxy)acetic acid (MCPA),” for “(2,4-D), an”, “mimics.” for “mimic.”, “three times.” for “one time.”, “means of the three” for “from single”

[5] = test system: common lambsquarters (CHEAL); test: Test 23 growth chamber, postemergence; type: in vivo, Chenopodium album; settings: 21 DAA; 2,4-D or MCPA alone 250 g a.i./ha
Experimental: as §1, with “species” for “species,”, “herbicides” for “herbicide”, “(2,4-D) and (4-chloro-2-methylphenoxy)acetic acid (MCPA),” for “(2,4-D), an”, “mimics.” for “mimic.”, “three times.” for “one time.”, “means of the three” for “from single”

kochia (KCHSC) = test: Test 23 growth chamber, postemergence; type: in vivo, Kochia scoparia; settings: 21 DAA; 2,4-D or MCPA alone 250 g a.i./ha
Experimental: as §1, with “species” for “species,”, “herbicides” for “herbicide”, “(2,4-D) and (4-chloro-2-methylphenoxy)acetic acid (MCPA),” for “(2,4-D), an”, “mimics.” for “mimic.”, “three times.” for “one time.”, “means of the three” for “from single”

field poppy (PAPRH) = test: Test 23 growth chamber, postemergence; type: in vivo, Papaver rhoeas; settings: 21 DAA; 2,4-D or MCPA alone 250 g a.i./ha
Experimental: as §1, with “species” for “species,”, “herbicides” for “herbicide”, “(2,4-D) and (4-chloro-2-methylphenoxy)acetic acid (MCPA),” for “(2,4-D), an”, “mimics.” for “mimic.”, “three times.” for “one time.”, “means of the three” for “from single”

Russian thistle (SASKR) [6] = test: Test 23 growth chamber, postemergence; type: in vivo, Salsola kali; settings: 21 DAA; 2,4-D or MCPA alone 250 g a.i./ha
Experimental: as §1, with “species” for “species,”, “herbicides” for “herbicide”, “(2,4-D) and (4-chloro-2-methylphenoxy)acetic acid (MCPA),” for “(2,4-D), an”, “mimics.” for “mimic.”, “three times.” for “one time.”, “means of the three” for “from single”

giant ragweed (AMBTR) = test: Test 2 field trial, preemergence; type: in vivo, Ambrosia trifida; set-up: scale not given here
Excerpt: Corn seeds (hybrid ‘Pioneer 31G96’) were planted in mid spring season, 3.8 cm deep in a clay loam soil having 2% organic matter and a pH of 6.6. Plots were 6.1 m long by 3.0 m wide with rows spaced 76 cm apart. Seeds were spaced 15 cm apart within the rows. The field was managed using conventional tillage practices. […] A few of the weed species could not be evaluated at every timing. […] Results are the means of the three replicates.

[7] = test system: broadleaf buttonweed (BOILF); test: Test 12 field trial, preemergence; type: in vivo, Borreria latifolia; set-up: scale not given here; settings: Cpd 2 or Cpd 1 62 g a.i./ha, Diuron 2000 g a.i./ha
Excerpt: In early-mid spring season, corn seeds (hybrid ‘Pioneer 3041’) were planted 5 cm deep and sugarcane nodes (variety RB-72.454) were planted 10 cm deep in separate plots in a clay soil having 2.6% organic matter and a pH of 5.6. Plots were 24 m long by 1.5 m wide with rows spaced 80 cm (corn) or 140 cm (sugarcane) apart. Corn seeds were spaced 15 cm apart and sugarcane nodes were spaced 10 cm apart within the rows. At the same time, weed seeds were broadcast over the surface of separate plots without a crop, one weed species per plot. The weed plots were rotary tilled to incorporate the weed seeds to a variety of depths. The field was managed using conventional tillage practices.

O=C(O)COc1ccc(Cl)cc1Cl [2,4-D, (2,4-dichlorophenoxy)acetic acid] was tested, and the “Postemergence AMARE Obs” value (redroot pigweed (AMARE) [1]; 2,4-D alone 125 g a.i./ha) was 50, the “Postemergence AMARE Obs” value (redroot pigweed (AMARE) [1]; 2,4-D alone 250 g a.i./ha) was 50 and the “Postemergence AMARE Obs” value (redroot pigweed (AMARE) [2]) was 70. The “Postemergence POLCO Obs” value (wild buckwheat (POLCO)) was 45, the “Postemergence SASKR Obs” value (Russian thistle (SASKR) [3]) was 60 and the “Postemergence STEME Obs” value (common chickweed (STEME)) was 55. For the same molecule, the “Postemergence TRZAW Obs” value (winter wheat (TRZAW)) was 20, the “Postemergence AMARE Obs” value (redroot pigweed (AMARE) [4]) was 67 and the “Postemergence CHEAL Obs” value [5] was 58. The “Postemergence KCHSC Obs” value (kochia (KCHSC)) was 70, the “Postemergence PAPRH Obs” value (field poppy (PAPRH)) was 52 and the “Postemergence SASKR Obs” value (Russian thistle (SASKR) [6]) was 63.

For CCNc1nc(Cl)nc(NC(C)C)n1 [Atrazine, atrazine, reference compound], the “AMBTR Obs” value (giant ragweed (AMBTR); 18 DAA, g a.i./ha: Cpd 2 25, Atrazine 250) was 0, the “AMBTR Obs” value (giant ragweed (AMBTR); 18 DAA, g a.i./ha: Cpd 2 50, Atrazine 500) was 30 and the “AMBTR Obs” value (giant ragweed (AMBTR); 18 DAA, g a.i./ha: Cpd 2 75, Atrazine 750) was 75. For the same molecule, the “AMBTR Obs” value (giant ragweed (AMBTR); 18 DAA, g a.i./ha: Cpd 2 100, Atrazine 1000) was 20, the “AMBTR Obs” value (giant ragweed (AMBTR); 28 DAA, g a.i./ha: Cpd 2 25, Atrazine 250) was 10 and the “AMBTR Obs” value (giant ragweed (AMBTR); 28 DAA, g a.i./ha: Cpd 2 50, Atrazine 500) was 5. For the same molecule, the “AMBTR Obs” value (giant ragweed (AMBTR); 28 DAA, g a.i./ha: Cpd 2 75, Atrazine 750) was 65.

In the case of Nc1nc(C2CC2)nc(C(=O)O)c1Cl [Compound 1, 6-amino-5-chloro-2-cyclopropyl-4-pyrimidinecarboxylic acid], the “BOILF Obs” value ([7]; 15 DAA) is reported as 70, the “BOILF Obs” value ([7]; 29 DAA) is reported as 60 and the “BOILF Obs” value ([7]; 48 DAA) is reported as 95. For the same molecule, the “BOILF Obs” value ([7]; 61 DAA) was 95.
